Our source for the IC50 values is US7595320B2, “Hydrazinocarbonyl-thieno[2,3-C]pyrazoles, process for preparing them, compositions containing them and use thereof” (Aventis Pharma S.A., priority 2005, dated 2009).

The IC50 is the concentration that gives 50% inhibition.

What all share (assay type): biochemical
One assay deals with T1, Aurora2 (Homo sapiens, UniProt O14965).
T1 construct: Aurora2: whole recombinant protein comprising an N-terminal histidine tail; His tag (N); made in house; host or cells: E. coli
T1 sequence (O14965 1-403): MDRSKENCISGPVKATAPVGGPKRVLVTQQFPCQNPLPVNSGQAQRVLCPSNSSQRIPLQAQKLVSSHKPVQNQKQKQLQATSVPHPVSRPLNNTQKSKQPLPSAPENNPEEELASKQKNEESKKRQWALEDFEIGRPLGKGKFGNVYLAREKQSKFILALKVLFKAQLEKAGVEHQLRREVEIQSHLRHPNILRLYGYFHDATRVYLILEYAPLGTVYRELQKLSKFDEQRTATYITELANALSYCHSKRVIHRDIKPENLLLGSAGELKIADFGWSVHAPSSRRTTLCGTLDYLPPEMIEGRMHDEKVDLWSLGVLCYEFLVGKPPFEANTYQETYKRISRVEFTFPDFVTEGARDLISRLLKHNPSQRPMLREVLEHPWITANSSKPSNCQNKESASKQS
Briefly: Aurora2 enzymatic test, NuMA phosphorylation with [33P]ATP, Flashplate. The note with it: whole recombinant protein, 1 μM ATP. As for the experimental part: (§1) The inhibitory effect of compounds with respect to the kinases Aurora1 and Aurora2 is determined by means of an enzymatic test using radioactivity detection.
(§2) The kinase activity of Aurora1 and Aurora2 is evaluated via the phosphorylation of the substrate Numa-histidine in the presence of radiolabelled ATP ([^33P]ATP) using 96-well Flashplate plates in which the nickel chelate is bound to the surface of the microplate. The amount of ^33P phosphate incorporated into the NuMA substrate is proportional to the activity of the enzyme Aurora1 or Aurora2.
Aurora2: whole recombinant protein comprising an N-terminal histidine tail, was expressed in E. coli and purified to more than 82%.
(§3) NuMA (nuclear protein that combines with the mitotic apparatus): 424-amino acid fragment, expressed in E. coli, the N-terminal end of which has been labeled with histidine, and used as substrate for the two Aurora enzymes.
(§4) The microplates used are 96-well Flash-Plate plates, nickel chelate (Perkin-Elmer, model SMP107).
(§5) The products to be evaluated are incubated in a reaction volume of 100 μL per well, in the presence of 10 nM of Aurora1 or Aurora2, 500 nM of NuMA substrate in a buffer composed of 50 mM Tris/HCl (pH 7.5), 50 mM NaCl, 5 mM MgCl2 (Aurora-B) or 10 mM MgCl2 (Aurora-A) and 1 mM DTT, at 37° C.
(§6) 80 μL of enzyme/substrate incubation buffer are distributed in each well, followed by 10 μL of product to be evaluated, at variable concentrations. The reaction is initiated by adding 1 μM final of ATP containing 0.2 μCi of [^33P]ATP (10 μL). After incubating for 30 minutes, the reaction is quenched by simple removal of the reaction buffer and each well is washed twice with 300 μl of Tris/HCl buffer. The radioactivity is then measured in each well using a Packard, Top-Count model scintillation machine.
(§7) The control enzymatic activity of Aurora is expressed by the number of counts per minute obtained over 30 minutes after subtracting the background noise (reaction mixture containing no enzyme). The evaluation of the various test products is expressed as a percentage of inhibition of the Aurora activity relative to the control.

In a further assay the target is T2, CDK2/cycline E (Homo sapiens, UniProt P24941).
T2 construct: made in house; host or cells: Sf21 insect cells (baculovirus coinfection)
In words: CDK2/cyclineE Flashplate test in 96-well format. As to conditions: CDK2/cycline E complex, 1 μM ATP. The method, then: Two recombinant baculoviruses bearing the human sequences coding, respectively, for CDK2 and cyclineE (the latter bearing a C-terminal hexahistidine tag) are used to coinfect Sf21 insect cells. Two to three days after the start of coinfection, the cells are harvested by centrifugation and then stored at −40° C. until the time of use.
A format in streptavidin-coated 96-well plates is used to test the activity of the compounds on the kinase activity of CDK2/cycline E.
To perform this test, the biotinylated peptide substrate, a fragment of the protein pRb (biotinyl-[…]-OH), is dissolved at a concentration of 1 mM in kinase buffer (HEPES/NaOH 50 mM, NaCl 1 mM, MgCl2 5 mM, pH 7.5) in order to constitute a stock solution stored at −20° C. in the form of 110 μL aliquots. On the day of the experiment, an aliquot of this solution is thawed and diluted in kinase buffer containing 1 mM of dithiothreitol, added to the buffer extemporaneously, in order to obtain a concentration of 14.3 μM. 70 μL of this solution are added to each well of the Flashplate in order to obtain a final substrate concentration of 10 μM during the enzymatic reaction performed in a final volume of the reaction medium of 100 μL (cf. below).
Intermediate dilutions of inhibitors (products of the invention) at various concentrations are prepared in DMSO from stock solutions at 10 mM in separate tubes. Dilutions at 1000 μM, 333.3 μM, 111.1 μM, 37.03 μM, 12.35 μM, 4.11 μM and 1.37 μM are thus prepared. One μL of each of these solutions (or 1 μL of DMSO for the controls) is transferred into the wells of the test plate.
19 μl of a solution of a mixture of adenosine triphosphate (ATP) and of ATPγ^33P in kinase buffer at a total concentration of 5.26 μM of ATP and 52.6 μCi/ml of ^33P are then added to each well. The enzymatic reaction is initiated by adding 10 μL per well of a 200 nM solution of CDK2/cycline E in kinase buffer containing 1 mM of dithiothreitol (or 10 μL of kinase buffer containing 1 mM of dithiothreitol for the reaction blanks).
After addition of each of the reagents, the final volume of each well is 100 μL, the final concentration of substrate is 10 μM, the final inhibitor concentrations are 10 μM, 3.33 μM, 1.11 μM, 0.37 μM, 0.123 μM, 0.041 μM and 0.014 μM (according to the concentration of the intermediate dilution), the final ATP concentration is 1 μM, the final amount of ^33P is 1 μCi/well, and the final concentration of CDK2/cycline E complex is 20 nM.
After addition of all of the reagents, the test plate is incubated at 30° C. with orbital shaking at 650 rpm.
When the incubation is complete, the plate is washed three times with 300 μL per well of PBS (phosphate-buffered saline, pH=7.4, without calcium or magnesium, reference 10010-015, Gibco BRL). The incorporation of ^33P to the peptide is quantified by scintillation counting with a Packard Topcount.NXT machine.

In the next assay the target is T3, Tie2 (Homo sapiens, UniProt Q02763).
T3 construct: amino acids of the intracellular domain 776-1124; made in house; host or cells: baculovirus expression (pFastBacGT vector)
T3 sequence (Q02763 776-1124): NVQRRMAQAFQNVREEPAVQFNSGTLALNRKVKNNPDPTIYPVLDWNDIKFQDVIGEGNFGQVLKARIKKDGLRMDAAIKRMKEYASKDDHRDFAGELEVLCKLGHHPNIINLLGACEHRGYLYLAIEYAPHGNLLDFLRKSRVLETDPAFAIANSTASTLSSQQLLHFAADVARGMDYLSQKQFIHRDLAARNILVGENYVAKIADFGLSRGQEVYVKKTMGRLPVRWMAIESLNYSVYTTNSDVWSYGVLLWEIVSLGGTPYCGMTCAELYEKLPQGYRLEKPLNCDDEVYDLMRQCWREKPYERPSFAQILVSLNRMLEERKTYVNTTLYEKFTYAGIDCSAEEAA
Briefly: Tie2 kinase test, phosphorylation of PLC with GST-Tie2. As to conditions: GST-Tie2 intracellular domain 776-1124. As for the experimental part: The coding sequence of human Tie2 corresponding to the amino acids of the intracellular domain 776-1124 was generated by PCR using the cDNA isolated from a human placenta as a model. This sequence was introduced into a pFastBacGT baculovirus expression vector in the form of a GST fusion protein.
The inhibitory effect of the molecules is determined in a test of phosphorylation of PLC with Tie2 in the presence of GST-Tie2 purified to about 80% homogeneity. The substrate is composed of the SH2-SH3 fragments of PLC expressed in the form of a GST fusion protein.
The kinase activity of Tie2 is measured in a MOPS 20 mM pH 7.2 buffer, containing 10 mM MgCl2, 10 mM MnCl2, 1 mM DTT, 10 mM of glycerophosphate. In a 96-well FlashPlate plate maintained on ice, a reaction mixture is deposited, composed of 70 μL of kinase buffer containing 100 ng of enzyme GST-Tie2 per well. Next, 10 μL of the test molecule diluted in DMSO to a maximum concentration of 10% are added. For a given concentration, each measurement is performed four times. The reaction is initiated by adding 20 μL of solution containing 2 μg of GST-PLC, 2 μm of cold ATP and 1 μCi of ^33P[ATP]. After incubation for one hour at 37° C., the reaction is stopped by adding 1 volume (100 μl) of 200 mM EDTA. After removal of the incubation buffer, the wells are washed three times with 300 μL of PBS. The radioactivity is measured on a MicroBeta1450 Wallac.
The inhibition of the Tie2 activity is calculated and expressed as a percentage of inhibition relative to the control activity determined in the absence of compound.

A further assay concerns the target T4, Aurora1 (Homo sapiens, UniProt Q96GD4).
T4 construct: His tag (N); made in house
In words: Aurora1 enzymatic test, NuMA phosphorylation with [33P]ATP, Flashplate. As to conditions: Aurora-B/INCENP-C3 recombinant complex, 1 μM ATP. The method, then: as §1, §2
Aurora1: Aurora-B/INCENP-C3 recombinant complex, purified to about 50%, the N-terminal end of Aurora-B of which has been labeled with histidine.
as §3, §4, §5, §6, §7

T4 sequence (Q96GD4 whole entry, species assumed): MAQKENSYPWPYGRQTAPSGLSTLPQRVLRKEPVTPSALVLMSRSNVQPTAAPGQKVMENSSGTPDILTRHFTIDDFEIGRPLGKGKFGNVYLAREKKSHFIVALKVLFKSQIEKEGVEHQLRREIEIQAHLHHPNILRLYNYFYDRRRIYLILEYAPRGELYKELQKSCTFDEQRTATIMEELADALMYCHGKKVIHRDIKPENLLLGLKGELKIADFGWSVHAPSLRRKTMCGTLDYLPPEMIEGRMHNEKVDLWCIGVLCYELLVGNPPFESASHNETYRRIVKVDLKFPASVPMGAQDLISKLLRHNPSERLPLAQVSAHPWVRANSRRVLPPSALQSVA
T4 sequence (Q9NQS7 835-903 partner limits assumed, species assumed): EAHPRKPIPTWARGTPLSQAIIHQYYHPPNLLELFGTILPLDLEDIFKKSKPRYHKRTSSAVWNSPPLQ

Regarding `COc1ccc(C(=O)Nc2n[nH]c3sc(C(=O)NNc4ccccc4)cc23)cc1` [Example 1], the IC50 at Aurora2 was 8 nM; on CDK2/cycline E it was 177 nM; on Tie2, 117 nM; at Aurora1, 8 nM.

Turning to `COc1ccc(C(=O)Nc2n[nH]c3sc(C(=O)NN(C)c4ccccc4)cc23)cc1` [Example 2], the IC50 is 9 nM at Aurora2, 97 nM against CDK2/cycline E, 92 nM on Tie2 and 9 nM at Aurora1.

`COc1ccc(C(=O)Nc2n[nH]c3sc(C(=O)NNC4CCCCC4)cc23)cc1` [Example 3, N-[5-(N′-cyclohexylhydrazinocarbonyl)-1H-thieno-[2,3-c]pyrazol-3-yl]-4-methoxybenzamide]: the IC50 at Aurora2 came to 45 nM; against CDK2/cycline E it was 471 nM; at Tie2 it was 192 nM; on Aurora1 it was 31 nM.

Regarding `COc1ccc(C(=O)Nc2n[nH]c3sc(C(=O)NN(Cc4ccccc4)c4ccccc4)cc23)cc1` [Example 4, N-[5-(N′-benzyl-N′-phenylhydrazinocarbonyl)-1H-thieno[2,3-c]pyrazol-3-yl]-4-methoxybenzamide], the IC50 at Aurora2 was found to be 28 nM; at CDK2/cycline E it was 508 nM; against Tie2 it was 115 nM; at Aurora1, 6 nM.

Take `CCc1ccccc1NNC(=O)c1cc2c(NC(=O)c3ccc(OC)cc3)n[nH]c2s1` [Example 5, N-{5-[N′-(2-ethylphenyl)hydrazinocarbonyl]-1H-thieno[2,3-c]pyrazol-3-yl}-4-methoxybenzamide]: the IC50 on Aurora2 was found to be 28 nM; at CDK2/cycline E, 664 nM; against Tie2 it was 75 nM; at Aurora1, 33 nM.

Consider `COc1ccc(C(=O)Nc2n[nH]c3sc(C(=O)NNc4ccccc4F)cc23)cc1` [Example 6, N-{5-[N′-(2-fluorophenyl)hydrazinocarbonyl]-1H-thieno[2,3-c]pyrazol-3-yl}-4-methoxybenzamide], for which the IC50 at Aurora2 was 20 nM; against CDK2/cycline E, 579 nM; on Tie2, 230 nM; at Aurora1, 14 nM.

Turning to `COc1ccc(C(=O)Nc2n[nH]c3sc(C(=O)NNc4ccccc4C)cc23)cc1` [Example 7, 4-methoxy-N-[5-(N′-o-tolylhydrazinocarbonyl)-1H-thieno[2,3-c]pyrazol-3-yl]benzamide], the IC50 came out at 17 nM at Aurora2, 428 nM at CDK2/cycline E, 186 nM on Tie2 and 16 nM on Aurora1.

`CN1CCN(Cc2ccc(C(=O)Nc3n[nH]c4sc(C(=O)NN(C)c5ccccc5)cc34)cc2)CC1` [Example 10, N-[5-(N′-methyl-N′-phenylhydrazinocarbonyl)-1H-thieno[2,3-c]pyrazol-3-yl]-4-(4-methylpiperazin-1-ylmethyl)benzamide]: the IC50 at Aurora2 is 46 nM; on CDK2/cycline E it was 92 nM; against Tie2, 367 nM; on Aurora1, 102 nM.

Regarding `CC1CN(Cc2ccc(C(=O)Nc3n[nH]c4sc(C(=O)NN(C)c5ccccc5)cc34)cc2)CC(C)N1` (stereo not drawn) [Example 11a, 4-(3,5-dimethylpiperazin-1-ylmethyl)-N-[5-(N′-methyl-N′-phenylhydrazinocarbonyl)-1H-thieno[2,3-c]pyrazol-3-yl]benzamide], the IC50 on Aurora2 turned out to be 31 nM; against CDK2/cycline E it was 156 nM; at Tie2 it was 520 nM; on Aurora1 it was 178 nM.

On to `CCN(NC(=O)c1cc2c(NC(=O)c3ccc(N4CCN(C)CC4)cc3)n[nH]c2s1)c1ccccc1` [Example 33, N-[5-(N′-ethyl-N′-phenylhydrazinocarbonyl)-1H-thieno[2,3-c]pyrazol-3-yl]-4-(4-methylpiperazin-1-yl)benzamide], for which the IC50 worked out at 100 nM against CDK2/cycline E, 8 nM at Tie2 and 13 nM on Aurora1.

As to `CN1CCCN(c2ccc(C(=O)Nc3n[nH]c4sc(C(=O)NN(C)c5ccccc5)cc34)cc2)CC1` [Example 47, 4-(4-methyl[1,4]diazepan-1-yl)-N-[5-(N′-methyl-N′-phenylhydrazinocarbonyl)-1H-thieno[2,3-c]pyrazol-3-yl]benzamide], the figures for the IC50 on CDK2/cycline E, at Tie2 and at Aurora1 were 289 nM, 75 nM and 8 nM, respectively.
